{
  "source": "paper doi:10.1101/2021.04.08.439011v1",
  "about": "(biorxiv, 2021)",
  "key": {"PIM2": {"target": "PIM2 (Homo sapiens, UniProt Q9P1W9)", "settings": "1 µM; binder"}, "ACVR2B": {"target": "ACVR2B (Homo sapiens, UniProt Q13705)", "settings": "1 µM; binder"}, "MAP3K14": {"target": "MAP3K14 (Homo sapiens, UniProt Q99558)", "sequence (Q99558 whole entry)": "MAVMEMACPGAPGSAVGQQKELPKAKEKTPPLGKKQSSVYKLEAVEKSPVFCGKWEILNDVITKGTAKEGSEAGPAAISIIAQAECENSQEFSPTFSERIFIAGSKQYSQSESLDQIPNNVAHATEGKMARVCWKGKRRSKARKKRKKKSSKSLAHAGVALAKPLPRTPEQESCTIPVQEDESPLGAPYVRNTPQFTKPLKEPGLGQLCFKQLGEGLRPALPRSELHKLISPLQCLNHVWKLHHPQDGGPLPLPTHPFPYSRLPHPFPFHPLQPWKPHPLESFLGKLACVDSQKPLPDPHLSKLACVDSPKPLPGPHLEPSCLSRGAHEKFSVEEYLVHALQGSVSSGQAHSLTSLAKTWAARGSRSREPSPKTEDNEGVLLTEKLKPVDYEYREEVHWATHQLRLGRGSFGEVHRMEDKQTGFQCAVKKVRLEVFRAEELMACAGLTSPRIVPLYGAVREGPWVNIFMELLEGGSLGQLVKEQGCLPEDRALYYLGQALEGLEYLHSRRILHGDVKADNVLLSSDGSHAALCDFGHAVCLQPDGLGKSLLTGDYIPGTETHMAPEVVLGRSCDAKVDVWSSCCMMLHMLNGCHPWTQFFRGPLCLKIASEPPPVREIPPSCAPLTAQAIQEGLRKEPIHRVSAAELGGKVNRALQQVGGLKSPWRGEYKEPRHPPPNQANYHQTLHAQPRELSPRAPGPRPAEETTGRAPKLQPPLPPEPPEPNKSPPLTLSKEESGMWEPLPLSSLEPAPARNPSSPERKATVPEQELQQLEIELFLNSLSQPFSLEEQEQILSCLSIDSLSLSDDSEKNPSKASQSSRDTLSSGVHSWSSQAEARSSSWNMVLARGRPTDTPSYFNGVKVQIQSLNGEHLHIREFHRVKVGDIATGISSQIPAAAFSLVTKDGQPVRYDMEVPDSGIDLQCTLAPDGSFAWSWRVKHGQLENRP", "settings": "1 µM; binder"}, "BMPR2": {"target": "BMPR2 (Homo sapiens, UniProt Q13873)", "settings": "1 µM; binder"}, "SIK2": {"target": "SIK2 (Homo sapiens, UniProt Q9H0K1)", "settings": "1 µM; binder"}, "PAK6": {"target": "PAK6 (Homo sapiens, UniProt Q9NQU5)", "settings": "1 µM; binder"}, "PCTK3": {"target": "PCTK3 (Homo sapiens, UniProt Q07002)", "sequence (Q07002 whole entry)": "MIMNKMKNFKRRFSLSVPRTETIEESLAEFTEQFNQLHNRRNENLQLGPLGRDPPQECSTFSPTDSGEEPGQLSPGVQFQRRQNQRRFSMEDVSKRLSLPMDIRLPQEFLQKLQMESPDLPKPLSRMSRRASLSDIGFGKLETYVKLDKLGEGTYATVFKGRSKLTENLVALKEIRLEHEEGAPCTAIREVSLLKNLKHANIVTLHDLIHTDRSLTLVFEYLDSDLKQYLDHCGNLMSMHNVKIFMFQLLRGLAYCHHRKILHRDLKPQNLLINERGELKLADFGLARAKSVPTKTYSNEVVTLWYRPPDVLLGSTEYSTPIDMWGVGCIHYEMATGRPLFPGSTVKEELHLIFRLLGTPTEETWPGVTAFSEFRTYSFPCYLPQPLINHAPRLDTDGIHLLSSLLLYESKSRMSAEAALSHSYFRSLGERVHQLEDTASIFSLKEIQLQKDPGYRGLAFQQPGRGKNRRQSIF", "settings": "1 µM; binder"}, "MLK2": {"target": "MLK2 (Homo sapiens, UniProt Q02779)", "settings": "1 µM; binder"}, "NEK3": {"target": "NEK3 (Homo sapiens, UniProt P51956)", "settings": "1 µM; binder"}, "AKT2": {"target": "AKT2 (Homo sapiens, UniProt P31751)", "settings": "1 µM; binder"}, "CAMK1": {"target": "CAMK1 (Homo sapiens, UniProt Q14012)", "sequence (Q14012 whole entry)": "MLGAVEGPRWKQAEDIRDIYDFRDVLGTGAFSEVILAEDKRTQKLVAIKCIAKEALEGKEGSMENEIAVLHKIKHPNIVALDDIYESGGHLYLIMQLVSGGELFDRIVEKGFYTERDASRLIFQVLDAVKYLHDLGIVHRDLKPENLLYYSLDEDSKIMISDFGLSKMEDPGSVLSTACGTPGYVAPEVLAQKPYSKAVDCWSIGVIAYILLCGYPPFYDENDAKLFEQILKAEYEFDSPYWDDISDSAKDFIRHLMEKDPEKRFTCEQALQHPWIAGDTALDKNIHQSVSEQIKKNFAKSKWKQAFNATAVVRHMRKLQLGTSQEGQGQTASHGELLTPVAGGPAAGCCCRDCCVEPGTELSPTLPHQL", "settings": "1 µM; binder"}, "EPHA5": {"target": "EPHA5 (Homo sapiens, UniProt P54756)", "settings": "1 µM; binder"}, "NEK11": {"target": "NEK11 (Homo sapiens, UniProt Q8NG66)", "settings": "1 µM; binder"}, "ULK1": {"target": "ULK1 (Homo sapiens, UniProt O75385)", "settings": "1 µM; binder"}, "CSK": {"target": "CSK (Homo sapiens, UniProt P41240)", "settings": "1 µM; binder"}, "BMPR1A": {"target": "BMPR1A (Homo sapiens, UniProt P36894)", "settings": "1 µM; binder"}, "RPS6KA3": {"target": "RPS6KA3 (Homo sapiens, UniProt P51812)", "sequence (P51812 whole entry)": "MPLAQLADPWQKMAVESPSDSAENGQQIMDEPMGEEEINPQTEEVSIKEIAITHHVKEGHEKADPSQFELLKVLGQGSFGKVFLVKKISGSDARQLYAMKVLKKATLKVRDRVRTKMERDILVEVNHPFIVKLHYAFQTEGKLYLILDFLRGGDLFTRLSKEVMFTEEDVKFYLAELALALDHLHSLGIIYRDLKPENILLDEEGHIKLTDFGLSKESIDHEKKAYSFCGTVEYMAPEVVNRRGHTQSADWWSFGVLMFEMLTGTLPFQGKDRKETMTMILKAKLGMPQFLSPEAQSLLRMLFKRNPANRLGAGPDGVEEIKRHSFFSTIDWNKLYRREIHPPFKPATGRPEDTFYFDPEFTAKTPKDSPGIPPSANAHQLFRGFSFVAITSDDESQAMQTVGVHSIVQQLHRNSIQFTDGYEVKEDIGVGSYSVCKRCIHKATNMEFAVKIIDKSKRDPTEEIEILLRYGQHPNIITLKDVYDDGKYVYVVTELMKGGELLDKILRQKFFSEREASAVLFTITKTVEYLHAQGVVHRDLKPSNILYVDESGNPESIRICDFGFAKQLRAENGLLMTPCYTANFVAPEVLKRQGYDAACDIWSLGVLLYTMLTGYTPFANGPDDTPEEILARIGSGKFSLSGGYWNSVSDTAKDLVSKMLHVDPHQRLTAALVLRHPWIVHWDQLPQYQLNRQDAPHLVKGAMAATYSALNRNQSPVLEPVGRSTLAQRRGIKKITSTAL", "settings": "binder"}, "GRK1": {"target": "GRK1 (Homo sapiens, UniProt Q15835)", "sequence (Q15835 whole entry)": "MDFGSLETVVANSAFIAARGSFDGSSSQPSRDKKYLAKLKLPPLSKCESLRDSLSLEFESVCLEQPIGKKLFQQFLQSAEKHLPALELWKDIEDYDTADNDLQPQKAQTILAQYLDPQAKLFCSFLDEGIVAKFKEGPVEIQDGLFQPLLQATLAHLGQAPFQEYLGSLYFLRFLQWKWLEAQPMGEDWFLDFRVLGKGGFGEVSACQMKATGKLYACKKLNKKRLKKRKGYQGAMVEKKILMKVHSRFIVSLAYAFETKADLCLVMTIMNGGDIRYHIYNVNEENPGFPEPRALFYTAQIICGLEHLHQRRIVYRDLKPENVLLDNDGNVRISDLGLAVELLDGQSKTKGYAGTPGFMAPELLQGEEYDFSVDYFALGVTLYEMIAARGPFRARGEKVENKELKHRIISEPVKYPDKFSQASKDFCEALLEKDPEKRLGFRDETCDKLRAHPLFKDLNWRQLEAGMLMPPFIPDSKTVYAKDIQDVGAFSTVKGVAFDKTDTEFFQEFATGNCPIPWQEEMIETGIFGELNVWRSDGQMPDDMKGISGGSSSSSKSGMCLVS", "settings": "1 µM; binder"}, "AURKC": {"target": "AURKC (Homo sapiens, UniProt Q9UQB9)", "settings": "1 µM; binder"}, "TXK": {"target": "TXK (Homo sapiens, UniProt P42681)", "settings": "1 µM; binder"}, "JAK2": {"target": "JAK2 (Homo sapiens, UniProt O60674)", "settings": "JH1 domain catalytic; binder"}, "LYN": {"target": "LYN (Homo sapiens, UniProt P07948)", "sequence (P07948 whole entry)": "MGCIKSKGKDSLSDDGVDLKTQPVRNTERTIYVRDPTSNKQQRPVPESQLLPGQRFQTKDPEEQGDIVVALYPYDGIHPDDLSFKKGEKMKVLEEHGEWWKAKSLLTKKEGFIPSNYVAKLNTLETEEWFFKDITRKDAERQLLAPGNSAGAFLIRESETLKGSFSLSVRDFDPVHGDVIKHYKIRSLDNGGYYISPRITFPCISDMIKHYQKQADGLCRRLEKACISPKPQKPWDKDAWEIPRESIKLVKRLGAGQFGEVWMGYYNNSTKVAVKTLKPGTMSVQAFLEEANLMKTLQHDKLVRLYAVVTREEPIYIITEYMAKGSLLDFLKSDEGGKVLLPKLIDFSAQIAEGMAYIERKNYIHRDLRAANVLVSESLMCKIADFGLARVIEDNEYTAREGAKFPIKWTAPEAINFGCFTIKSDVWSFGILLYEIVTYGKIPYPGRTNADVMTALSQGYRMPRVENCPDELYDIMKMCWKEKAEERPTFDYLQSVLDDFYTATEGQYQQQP", "settings": "1 µM; binder"}, "PDGFRA": {"target": "PDGFRA (Homo sapiens, UniProt P16234)", "settings": "1 µM; binder"}, "PRKCQ": {"target": "PRKCQ (Homo sapiens, UniProt Q04759)", "settings": "1 µM; binder"}, "PIM3": {"target": "PIM3 (Homo sapiens, UniProt Q86V86)", "settings": "1 µM; binder"}, "CHEK1": {"target": "CHEK1 (Homo sapiens, UniProt O14757)", "settings": "1 µM; binder"}, "p38-beta": {"target": "p38-beta (Homo sapiens, UniProt Q15759)", "settings": "1 µM; binder"}, "TIE1": {"target": "TIE1 (Homo sapiens, UniProt P35590)", "settings": "1 µM; binder"}, "CSNK1A1L": {"target": "CSNK1A1L (Homo sapiens, UniProt Q8N752)", "settings": "1 µM; binder"}, "BIKE": {"target": "BIKE (Homo sapiens, UniProt Q9NSY1)", "sequence (Q9NSY1 whole entry)": "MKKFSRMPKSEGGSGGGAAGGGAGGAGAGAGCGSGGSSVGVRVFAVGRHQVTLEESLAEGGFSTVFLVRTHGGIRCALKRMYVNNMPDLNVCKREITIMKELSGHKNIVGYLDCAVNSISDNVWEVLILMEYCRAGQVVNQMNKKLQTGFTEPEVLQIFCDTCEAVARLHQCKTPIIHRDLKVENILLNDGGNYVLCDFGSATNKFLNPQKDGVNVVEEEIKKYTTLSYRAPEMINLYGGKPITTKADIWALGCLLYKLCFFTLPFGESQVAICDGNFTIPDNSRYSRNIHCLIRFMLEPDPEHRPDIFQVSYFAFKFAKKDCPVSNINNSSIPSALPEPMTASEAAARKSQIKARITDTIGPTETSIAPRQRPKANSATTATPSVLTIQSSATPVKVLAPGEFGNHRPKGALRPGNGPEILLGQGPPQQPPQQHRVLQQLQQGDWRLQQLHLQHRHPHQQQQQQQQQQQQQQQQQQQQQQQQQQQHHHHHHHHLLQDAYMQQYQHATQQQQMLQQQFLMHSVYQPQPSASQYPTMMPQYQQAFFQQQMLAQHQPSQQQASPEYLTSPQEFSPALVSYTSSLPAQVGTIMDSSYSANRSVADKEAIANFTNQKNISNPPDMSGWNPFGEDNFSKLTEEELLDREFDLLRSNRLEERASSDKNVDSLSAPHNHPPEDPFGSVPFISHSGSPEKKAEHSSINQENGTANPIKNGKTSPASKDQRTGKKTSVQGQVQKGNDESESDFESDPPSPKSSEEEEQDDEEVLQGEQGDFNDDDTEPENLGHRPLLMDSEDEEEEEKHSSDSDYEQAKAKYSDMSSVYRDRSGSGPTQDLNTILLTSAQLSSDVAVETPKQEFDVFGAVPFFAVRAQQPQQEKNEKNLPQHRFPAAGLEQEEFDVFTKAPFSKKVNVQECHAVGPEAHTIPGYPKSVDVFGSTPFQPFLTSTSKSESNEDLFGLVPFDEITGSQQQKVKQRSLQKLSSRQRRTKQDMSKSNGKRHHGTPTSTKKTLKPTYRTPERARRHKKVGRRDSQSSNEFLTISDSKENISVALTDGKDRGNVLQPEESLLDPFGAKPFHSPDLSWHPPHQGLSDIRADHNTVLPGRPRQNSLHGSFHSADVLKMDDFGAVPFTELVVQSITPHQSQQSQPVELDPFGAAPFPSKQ", "settings": "1 µM; binder"}},
  "note": "Where two headings read alike, the source gives them in different places.",
  "data": [
    {"molecule": "CNc1ncc2cc(-c3ccc(-c4cccc(C)n4)cc3Cl)c(=O)n(C[C@H]3OC[C@H](N)CO3)c2n1", "note": "[compound 6, G-5555]", "values": [
      {"measurement": "Percent Control", "setting": "PIM2", "value": 100, "unit": "%"},
      {"measurement": "Percent Control", "setting": "ACVR2B", "value": 100, "unit": "%"},
      {"measurement": "Percent Control", "setting": "MAP3K14", "value": 100, "unit": "%"},
      {"measurement": "Percent Control", "setting": "BMPR2", "value": 100, "unit": "%"},
      {"measurement": "Percent Control", "setting": "SIK2", "value": 0.8, "unit": "%"},
      {"measurement": "Percent Control", "setting": "PAK6", "value": 45, "unit": "%"},
      {"measurement": "Percent Control", "setting": "PCTK3", "value": 100, "unit": "%"},
      {"measurement": "Percent Control", "setting": "MLK2", "value": 88, "unit": "%"},
      {"measurement": "Percent Control", "setting": "NEK3", "value": 72, "unit": "%"},
      {"measurement": "Percent Control", "setting": "AKT2", "value": 100, "unit": "%"},
      {"measurement": "Percent Control", "setting": "CAMK1", "value": 59, "unit": "%"},
      {"measurement": "Percent Control", "setting": "EPHA5", "value": 100, "unit": "%"},
      {"measurement": "Percent Control", "setting": "NEK11", "value": 100, "unit": "%"},
      {"measurement": "Percent Control", "setting": "ULK1", "value": 85, "unit": "%"},
      {"measurement": "Percent Control", "setting": "CSK", "value": 85, "unit": "%"},
      {"measurement": "Percent Control", "setting": "BMPR1A", "value": 85, "unit": "%"},
      {"measurement": "Percent Control", "setting": "RPS6KA3; Kin.Dom.1 N-terminal", "value": 65, "unit": "%"},
      {"measurement": "Percent Control", "setting": "RPS6KA3; Kin.Dom.2 C-terminal, 1 µM", "value": 63, "unit": "%"},
      {"measurement": "Percent Control", "setting": "GRK1", "value": 100, "unit": "%"},
      {"measurement": "Percent Control", "setting": "AURKC", "value": 20, "unit": "%"},
      {"measurement": "Percent Control", "setting": "TXK", "value": 100, "unit": "%"},
      {"measurement": "Percent Control", "setting": "JAK2", "value": 83, "unit": "%"},
      {"measurement": "Percent Control", "setting": "LYN", "value": 74, "unit": "%"},
      {"measurement": "Percent Control", "setting": "PDGFRA", "value": 96, "unit": "%"},
      {"measurement": "Percent Control", "setting": "PRKCQ", "value": 55, "unit": "%"},
      {"measurement": "Percent Control", "setting": "PIM3", "value": 100, "unit": "%"},
      {"measurement": "Percent Control", "setting": "CHEK1", "value": 100, "unit": "%"},
      {"measurement": "Percent Control", "setting": "p38-beta", "value": 100, "unit": "%"},
      {"measurement": "Percent Control", "setting": "TIE1", "value": 94, "unit": "%"},
      {"measurement": "Percent Control", "setting": "CSNK1A1L", "value": 100, "unit": "%"},
      {"measurement": "Percent Control", "setting": "BIKE", "value": 100, "unit": "%"}
    ]}
  ]
}
